Test results published in the kinase profiling compilation of Christmann-Franck et al. (2016).

Columns and labels:
Test in all cases: KINOMEscan competition binding
Details in all cases: compound 10.0 µM
[1] = molecular target: CLK1 (human) (UniProt P49759)
[2] = molecular target: JAK3 JH1 catalytic (human) (UniProt P52333)
[3] = tested on: EIF2AK4 KD2 (human), Q9P2K8 [S808G]
[4] = molecular target: DAPK3 (human) (UniProt O43293)
[5] = molecular target: RPS6KA4 KD2 (human) (UniProt O75676)
[6] = molecular target: GAK (human) (UniProt O14976)
[7] = molecular target: STK33 (human) (UniProt Q9BYT3)
[8] = molecular target: HIPK1 (human) (UniProt Q86Z02)
[9] = molecular target: SRPK3 (human) (UniProt Q9UPE1)
[10] = molecular target: CSNK1D (human) (UniProt P48730)
[11] = molecular target: BMPR1B (human) (UniProt O00238)
[12] = molecular target: RPS6KA2 KD2 (human) (UniProt Q15349)
[13] = molecular target: DAPK1 (human) (UniProt P53355)
[14] = molecular target: RPS6KA5 KD2 (human) (UniProt O75582)
[15] = molecular target: TGFBR2 (human) (UniProt P37173)
[16] = molecular target: PIP5K1A (human) (UniProt Q99755)
[17] = molecular target: SRPK2 (human) (UniProt P78362)
[18] = molecular target: PIM1 (human) (UniProt P11309)
[19] = molecular target: CAMKK2 (human) (UniProt Q96RR4)
[20] = molecular target: PIP4K2B (human) (UniProt P78356)
[21] = molecular target: PIK3CG (human) (UniProt P48736)
[22] = molecular target: CSNK1E (human) (UniProt P49674)
[23] = molecular target: TAOK3 (human) (UniProt Q9H2K8)
[24] = molecular target: CSNK2A2 (human) (UniProt P19784)
[25] = molecular target: TNIK (human) (UniProt Q9UKE5)
[26] = molecular target: MKNK1 (human) (UniProt Q9BUB5)
[27] = molecular target: RPS6KA1 KD2 (human) (UniProt Q15418)
[28] = tested on: KIT (human), P10721 [V559D]
[29] = molecular target: MAP2K4 (human) (UniProt P45985)
[30] = molecular target: MAPK8 (human) (UniProt P45983)
[31] = molecular target: MKNK2 (human) (UniProt Q9HBH9)
[32] = molecular target: ACVR1 (human) (UniProt Q04771)
[33] = molecular target: MINK1 (human) (UniProt Q8N4C8)
[34] = molecular target: MAP4K4 (human) (UniProt O95819)
[35] = tested on: FLT3 (human), P36888 [K663Q]
[36] = tested on: KIT (human), P10721 [V559D/V654A]
[37] = molecular target: PLK4 (human) (UniProt O00444)
[38] = molecular target: ACVR2A (human) (UniProt P27037)
[39] = molecular target: PRKD1 (human) (UniProt Q15139)
[40] = molecular target: MAP3K5 (human) (UniProt Q99683)
[41] = tested on: KIT (human), P10721 [V559D/T670I]
[42] = molecular target: NEK2 (human) (UniProt P51955)

Sequence of PIP5K1A (human) (Q99755 whole entry, looked up): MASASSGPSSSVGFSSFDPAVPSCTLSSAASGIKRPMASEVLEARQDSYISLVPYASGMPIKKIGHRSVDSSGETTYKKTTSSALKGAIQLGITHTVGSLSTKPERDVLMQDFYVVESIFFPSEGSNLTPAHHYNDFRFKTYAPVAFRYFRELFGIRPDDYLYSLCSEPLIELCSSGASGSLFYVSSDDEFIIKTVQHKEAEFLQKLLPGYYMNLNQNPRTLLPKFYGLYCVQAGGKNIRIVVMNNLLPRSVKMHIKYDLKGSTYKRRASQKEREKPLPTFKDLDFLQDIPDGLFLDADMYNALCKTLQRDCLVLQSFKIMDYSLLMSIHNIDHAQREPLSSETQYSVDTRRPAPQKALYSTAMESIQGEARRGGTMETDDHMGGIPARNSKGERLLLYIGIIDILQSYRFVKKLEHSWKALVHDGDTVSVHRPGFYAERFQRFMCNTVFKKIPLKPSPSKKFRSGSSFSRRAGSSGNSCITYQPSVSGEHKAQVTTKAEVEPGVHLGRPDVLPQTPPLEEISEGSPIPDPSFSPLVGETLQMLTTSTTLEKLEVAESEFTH
Sequence of TNIK (human) (Q9UKE5 whole entry, looked up): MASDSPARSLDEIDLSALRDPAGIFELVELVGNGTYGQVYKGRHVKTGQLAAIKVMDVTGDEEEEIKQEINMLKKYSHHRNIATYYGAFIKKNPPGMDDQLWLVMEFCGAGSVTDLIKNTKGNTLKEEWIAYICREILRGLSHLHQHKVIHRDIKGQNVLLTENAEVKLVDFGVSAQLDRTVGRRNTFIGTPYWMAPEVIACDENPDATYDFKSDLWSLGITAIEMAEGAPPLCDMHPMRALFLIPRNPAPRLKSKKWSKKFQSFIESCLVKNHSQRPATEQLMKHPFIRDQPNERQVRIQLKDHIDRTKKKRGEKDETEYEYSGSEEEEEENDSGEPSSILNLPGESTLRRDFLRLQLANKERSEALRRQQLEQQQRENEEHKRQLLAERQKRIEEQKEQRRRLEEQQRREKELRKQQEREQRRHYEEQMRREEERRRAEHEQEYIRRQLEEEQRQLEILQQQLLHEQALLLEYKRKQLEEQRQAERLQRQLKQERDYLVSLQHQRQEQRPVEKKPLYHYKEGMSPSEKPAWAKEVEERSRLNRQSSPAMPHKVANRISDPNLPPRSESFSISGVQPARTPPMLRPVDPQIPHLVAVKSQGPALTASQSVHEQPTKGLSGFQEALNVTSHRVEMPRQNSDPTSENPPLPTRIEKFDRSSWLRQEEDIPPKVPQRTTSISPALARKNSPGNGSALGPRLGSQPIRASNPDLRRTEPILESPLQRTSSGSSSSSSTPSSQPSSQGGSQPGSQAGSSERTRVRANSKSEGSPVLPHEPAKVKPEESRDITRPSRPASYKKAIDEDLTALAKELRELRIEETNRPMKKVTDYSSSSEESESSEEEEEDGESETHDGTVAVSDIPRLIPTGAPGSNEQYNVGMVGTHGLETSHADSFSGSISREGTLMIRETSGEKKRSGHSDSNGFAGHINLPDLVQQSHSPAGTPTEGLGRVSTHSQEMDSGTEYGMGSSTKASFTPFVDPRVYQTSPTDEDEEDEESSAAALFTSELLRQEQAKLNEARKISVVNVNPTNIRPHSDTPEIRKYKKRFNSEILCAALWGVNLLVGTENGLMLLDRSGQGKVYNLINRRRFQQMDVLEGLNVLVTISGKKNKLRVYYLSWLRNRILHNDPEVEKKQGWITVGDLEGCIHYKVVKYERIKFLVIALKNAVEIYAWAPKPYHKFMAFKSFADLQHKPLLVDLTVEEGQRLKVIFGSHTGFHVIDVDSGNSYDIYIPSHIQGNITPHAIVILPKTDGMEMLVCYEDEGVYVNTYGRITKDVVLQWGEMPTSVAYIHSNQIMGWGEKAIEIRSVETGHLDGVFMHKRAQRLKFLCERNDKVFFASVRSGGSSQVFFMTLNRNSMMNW
Sequence of SRPK2 (human) (P78362 whole entry, looked up): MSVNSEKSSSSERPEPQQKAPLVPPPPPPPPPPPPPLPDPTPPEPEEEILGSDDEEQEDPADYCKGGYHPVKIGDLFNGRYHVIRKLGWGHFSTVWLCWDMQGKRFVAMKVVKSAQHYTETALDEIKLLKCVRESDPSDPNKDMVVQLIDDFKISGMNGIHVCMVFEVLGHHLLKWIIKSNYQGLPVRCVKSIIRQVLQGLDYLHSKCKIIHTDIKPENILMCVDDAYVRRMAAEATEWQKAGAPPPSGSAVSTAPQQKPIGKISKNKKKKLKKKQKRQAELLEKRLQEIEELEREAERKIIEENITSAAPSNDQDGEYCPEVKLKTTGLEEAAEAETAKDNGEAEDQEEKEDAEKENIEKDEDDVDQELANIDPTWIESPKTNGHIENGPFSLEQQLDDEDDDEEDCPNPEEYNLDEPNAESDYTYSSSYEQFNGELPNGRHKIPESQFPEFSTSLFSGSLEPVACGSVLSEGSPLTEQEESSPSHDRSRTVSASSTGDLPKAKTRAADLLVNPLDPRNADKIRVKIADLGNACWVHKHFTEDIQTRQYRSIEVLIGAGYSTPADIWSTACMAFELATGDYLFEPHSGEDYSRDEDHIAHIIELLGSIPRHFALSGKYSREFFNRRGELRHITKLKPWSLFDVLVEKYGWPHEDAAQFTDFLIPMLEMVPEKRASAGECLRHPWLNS
Sequence of BMPR1B (human) (O00238 whole entry, looked up): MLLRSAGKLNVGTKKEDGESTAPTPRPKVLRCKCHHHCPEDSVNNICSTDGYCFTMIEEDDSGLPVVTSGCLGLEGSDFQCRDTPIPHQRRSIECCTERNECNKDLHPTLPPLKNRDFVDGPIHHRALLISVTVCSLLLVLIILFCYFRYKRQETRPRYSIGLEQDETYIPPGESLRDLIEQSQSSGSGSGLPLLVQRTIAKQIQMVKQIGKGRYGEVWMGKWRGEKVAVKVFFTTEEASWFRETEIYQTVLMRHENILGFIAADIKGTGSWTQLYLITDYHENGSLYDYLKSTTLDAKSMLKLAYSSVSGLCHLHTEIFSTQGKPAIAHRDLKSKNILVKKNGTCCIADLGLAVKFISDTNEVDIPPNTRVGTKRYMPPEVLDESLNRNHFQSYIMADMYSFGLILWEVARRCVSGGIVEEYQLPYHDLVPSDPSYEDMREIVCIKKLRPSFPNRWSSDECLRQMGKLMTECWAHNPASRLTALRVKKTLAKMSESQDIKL
Sequence of TGFBR2 (human) (P37173 whole entry, looked up): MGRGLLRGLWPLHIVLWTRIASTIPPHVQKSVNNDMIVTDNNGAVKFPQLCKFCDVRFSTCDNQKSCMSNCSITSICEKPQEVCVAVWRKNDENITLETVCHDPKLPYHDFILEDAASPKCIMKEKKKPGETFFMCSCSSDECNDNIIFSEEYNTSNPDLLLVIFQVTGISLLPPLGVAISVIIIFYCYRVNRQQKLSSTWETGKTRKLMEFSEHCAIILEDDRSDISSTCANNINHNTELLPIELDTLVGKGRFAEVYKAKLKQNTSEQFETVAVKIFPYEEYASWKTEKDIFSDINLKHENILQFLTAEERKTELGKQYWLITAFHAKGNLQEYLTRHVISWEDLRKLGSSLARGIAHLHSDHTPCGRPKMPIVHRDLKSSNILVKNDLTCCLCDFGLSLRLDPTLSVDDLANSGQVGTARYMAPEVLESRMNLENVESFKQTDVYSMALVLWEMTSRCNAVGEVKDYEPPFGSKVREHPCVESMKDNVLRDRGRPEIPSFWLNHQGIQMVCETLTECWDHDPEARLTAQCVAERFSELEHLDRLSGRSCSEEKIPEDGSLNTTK
Sequence of CLK1 (human) (P49759 whole entry, looked up): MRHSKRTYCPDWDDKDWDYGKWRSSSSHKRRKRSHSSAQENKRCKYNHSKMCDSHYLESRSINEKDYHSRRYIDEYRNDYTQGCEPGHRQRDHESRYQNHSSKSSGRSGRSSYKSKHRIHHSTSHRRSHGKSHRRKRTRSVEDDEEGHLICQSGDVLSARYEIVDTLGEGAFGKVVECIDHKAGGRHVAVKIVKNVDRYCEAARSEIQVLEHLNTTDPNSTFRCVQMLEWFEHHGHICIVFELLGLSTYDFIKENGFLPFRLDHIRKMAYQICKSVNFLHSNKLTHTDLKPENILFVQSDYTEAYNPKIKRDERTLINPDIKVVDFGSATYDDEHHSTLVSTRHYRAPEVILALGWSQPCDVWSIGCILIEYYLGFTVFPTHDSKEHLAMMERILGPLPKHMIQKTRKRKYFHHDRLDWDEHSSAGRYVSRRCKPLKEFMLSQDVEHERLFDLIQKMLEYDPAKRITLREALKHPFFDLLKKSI
Sequence of CSNK2A2 (human) (P19784 whole entry, looked up): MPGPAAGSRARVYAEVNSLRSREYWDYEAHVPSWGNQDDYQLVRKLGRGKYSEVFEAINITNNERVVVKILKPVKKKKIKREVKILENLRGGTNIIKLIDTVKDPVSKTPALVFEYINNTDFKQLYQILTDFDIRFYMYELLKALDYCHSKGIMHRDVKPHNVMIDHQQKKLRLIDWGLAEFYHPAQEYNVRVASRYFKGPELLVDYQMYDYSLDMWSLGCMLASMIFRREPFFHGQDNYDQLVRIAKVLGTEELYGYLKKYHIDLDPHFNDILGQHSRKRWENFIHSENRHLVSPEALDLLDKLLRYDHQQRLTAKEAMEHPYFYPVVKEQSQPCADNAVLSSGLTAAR
Sequence of MKNK1 (human) (Q9BUB5 whole entry, looked up): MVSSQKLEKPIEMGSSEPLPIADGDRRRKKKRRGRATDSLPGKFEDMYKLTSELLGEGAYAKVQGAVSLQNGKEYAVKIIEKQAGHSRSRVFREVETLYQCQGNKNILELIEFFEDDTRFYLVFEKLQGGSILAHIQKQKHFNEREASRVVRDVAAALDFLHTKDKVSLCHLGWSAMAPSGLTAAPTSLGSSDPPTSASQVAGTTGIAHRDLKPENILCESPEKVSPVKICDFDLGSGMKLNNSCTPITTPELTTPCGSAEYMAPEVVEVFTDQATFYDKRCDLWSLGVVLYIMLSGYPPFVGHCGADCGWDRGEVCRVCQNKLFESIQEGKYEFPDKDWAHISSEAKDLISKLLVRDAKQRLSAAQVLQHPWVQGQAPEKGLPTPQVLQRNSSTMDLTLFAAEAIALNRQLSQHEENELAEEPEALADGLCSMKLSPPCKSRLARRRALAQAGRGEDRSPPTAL

Nc1cccc(-c2cc(/C=C3\SC(=O)NC3=O)c[nH]c2=O)c1
kinase still bound, per cent of control [1]: 2.1%
kinase still bound, per cent of control [2]: 6.8%
kinase still bound, per cent of control [3]: 0.6%
kinase still bound, per cent of control [4]: 0.6%
kinase still bound, per cent of control [5]: 0.1%
kinase still bound, per cent of control [6]: 9.2%
kinase still bound, per cent of control [7]: 19%
kinase still bound, per cent of control [8]: 0.2%
kinase still bound, per cent of control [9]: 13%
kinase still bound, per cent of control [10]: 23%
kinase still bound, per cent of control [11]: 2.2%
kinase still bound, per cent of control [12]: 3.8%
kinase still bound, per cent of control [13]: 2.2%
kinase still bound, per cent of control [14]: 11%
kinase still bound, per cent of control [15]: 26%
kinase still bound, per cent of control [16]: 17%
kinase still bound, per cent of control [17]: 26%
kinase still bound, per cent of control [18]: 4.8%
kinase still bound, per cent of control [19]: 5.8%
kinase still bound, per cent of control [20]: 6.6%
kinase still bound, per cent of control [21]: 11%
kinase still bound, per cent of control [22]: 26%
kinase still bound, per cent of control [23]: 24%
kinase still bound, per cent of control [24]: 9.6%

O=C1NC(=S)S/C1=C\c1ccc(-c2cncc3ccccc23)o1
kinase still bound, per cent of control [1]: 5.6%
kinase still bound, per cent of control [25]: 11%
kinase still bound, per cent of control [26]: 33%
kinase still bound, per cent of control [2]: 21%
kinase still bound, per cent of control [4]: 7.4%
kinase still bound, per cent of control [27]: 2.6%
kinase still bound, per cent of control [6]: 1.3%
kinase still bound, per cent of control [28]: 26%
kinase still bound, per cent of control [29]: 20%
kinase still bound, per cent of control [8]: 3.4%
kinase still bound, per cent of control [9]: 14%
kinase still bound, per cent of control [30]: 7%
kinase still bound, per cent of control [31]: 23%
kinase still bound, per cent of control [32]: 14%
kinase still bound, per cent of control [12]: 6.2%
kinase still bound, per cent of control [13]: 9.6%
kinase still bound, per cent of control [33]: 33%
kinase still bound, per cent of control [15]: 5.2%
kinase still bound, per cent of control [16]: 17%
kinase still bound, per cent of control [17]: 32%
kinase still bound, per cent of control [18]: 2.7%
kinase still bound, per cent of control [34]: 25%
kinase still bound, per cent of control [19]: 14%
kinase still bound, per cent of control [20]: 5.5%
kinase still bound, per cent of control [35]: 14%
kinase still bound, per cent of control [21]: 16%
kinase still bound, per cent of control [36]: 23%
kinase still bound, per cent of control [22]: 7%
kinase still bound, per cent of control [37]: 0.85%
kinase still bound, per cent of control [24]: 5.6%

N=C1NC(=O)/C(=C/c2ccc(-c3ccccc3O)o2)S1
kinase still bound, per cent of control [1]: 3.4%
kinase still bound, per cent of control [38]: 31%
kinase still bound, per cent of control [2]: 14%
kinase still bound, per cent of control [4]: 7.4%
kinase still bound, per cent of control [5]: 2.2%
kinase still bound, per cent of control [6]: 7.6%
kinase still bound, per cent of control [29]: 16%
kinase still bound, per cent of control [8]: 1.4%
kinase still bound, per cent of control [39]: 26%
kinase still bound, per cent of control [11]: 8.8%
kinase still bound, per cent of control [13]: 7.6%
kinase still bound, per cent of control [33]: 15%
kinase still bound, per cent of control [14]: 29%
kinase still bound, per cent of control [15]: 3.6%
kinase still bound, per cent of control [16]: 11%
kinase still bound, per cent of control [40]: 19%
kinase still bound, per cent of control [18]: 1.4%
kinase still bound, per cent of control [19]: 18%
kinase still bound, per cent of control [20]: 28%
kinase still bound, per cent of control [23]: 0.05%
kinase still bound, per cent of control [37]: 3.2%
kinase still bound, per cent of control [24]: 17%

CS(=O)(=O)Nc1ccc(-c2cncc(/C=C3\SC(=N)NC3=O)c2)cc1
kinase still bound, per cent of control [38]: 0.9%
kinase still bound, per cent of control [25]: 19%
kinase still bound, per cent of control [26]: 0.55%
kinase still bound, per cent of control [4]: 25%
kinase still bound, per cent of control [28]: 6%
kinase still bound, per cent of control [7]: 18%
kinase still bound, per cent of control [8]: 19%
kinase still bound, per cent of control [9]: 34%
kinase still bound, per cent of control [10]: 1.4%
kinase still bound, per cent of control [31]: 24%
kinase still bound, per cent of control [32]: 1.8%
kinase still bound, per cent of control [39]: 22%
kinase still bound, per cent of control [41]: 31%
kinase still bound, per cent of control [11]: 10%
kinase still bound, per cent of control [33]: 4.4%
kinase still bound, per cent of control [15]: 1.7%
kinase still bound, per cent of control [34]: 5.5%
kinase still bound, per cent of control [21]: 32%
kinase still bound, per cent of control [22]: 2.8%
kinase still bound, per cent of control [23]: 4.7%
kinase still bound, per cent of control [37]: 5.6%

N=C1NC(=O)/C(=C/c2ccc(-c3cncc4ccccc34)o2)S1
kinase still bound, per cent of control [1]: 2%
kinase still bound, per cent of control [38]: 8.6%
kinase still bound, per cent of control [25]: 8%
kinase still bound, per cent of control [26]: 0.8%
kinase still bound, per cent of control [3]: 0.7%
kinase still bound, per cent of control [4]: 6.2%
kinase still bound, per cent of control [5]: 27%
kinase still bound, per cent of control [27]: 11%
kinase still bound, per cent of control [6]: 0.9%
kinase still bound, per cent of control [28]: 7.2%
kinase still bound, per cent of control [7]: 12%
kinase still bound, per cent of control [9]: 7.2%
kinase still bound, per cent of control [30]: 20%
kinase still bound, per cent of control [10]: 3.4%
kinase still bound, per cent of control [32]: 0.5%
kinase still bound, per cent of control [39]: 16%
kinase still bound, per cent of control [41]: 14%
kinase still bound, per cent of control [12]: 13%
kinase still bound, per cent of control [13]: 5.9%
kinase still bound, per cent of control [15]: 0.85%
kinase still bound, per cent of control [16]: 3.3%
kinase still bound, per cent of control [17]: 9.9%
kinase still bound, per cent of control [18]: 0.7%
kinase still bound, per cent of control [19]: 7.4%
kinase still bound, per cent of control [20]: 2.6%
kinase still bound, per cent of control [35]: 8.1%
kinase still bound, per cent of control [36]: 23%
kinase still bound, per cent of control [22]: 1.4%
kinase still bound, per cent of control [23]: 26%
kinase still bound, per cent of control [37]: 0.95%
kinase still bound, per cent of control [24]: 5.1%

CSC1=NC(=O)/C(=C/c2c[nH]c(=O)c(-c3ccc(NS(C)(=O)=O)cc3)c2)S1
kinase still bound, per cent of control [1]: 18%
kinase still bound, per cent of control [3]: 16%
kinase still bound, per cent of control [4]: 6.2%
kinase still bound, per cent of control [5]: 0.15%
kinase still bound, per cent of control [27]: 32%
kinase still bound, per cent of control [6]: 3.4%
kinase still bound, per cent of control [29]: 10%
kinase still bound, per cent of control [8]: 2.2%
kinase still bound, per cent of control [9]: 14%
kinase still bound, per cent of control [11]: 7.4%
kinase still bound, per cent of control [12]: 16%
kinase still bound, per cent of control [13]: 3.7%
kinase still bound, per cent of control [14]: 11%
kinase still bound, per cent of control [15]: 14%
kinase still bound, per cent of control [16]: 29%
kinase still bound, per cent of control [17]: 13%
kinase still bound, per cent of control [18]: 13%
kinase still bound, per cent of control [42]: 27%
kinase still bound, per cent of control [19]: 31%
kinase still bound, per cent of control [20]: 18%
kinase still bound, per cent of control [21]: 13%
kinase still bound, per cent of control [37]: 14%
kinase still bound, per cent of control [24]: 6.2%
